Source: patent US6342368B1, “WD-40-derived peptides and uses thereof” (The Board of Trustees of the Leland Stanford Junior …, priority 1994, dated 2002)
“And” between values parts separate entries of the source, which are not always exact repeats. Identical values can stand only once. “Also recorded” adds a separate entry of the source.

How the values were obtained:
[1] = tested on: PKC binding to recombinant RACK1; assay: Overlay / overlay-extraction assay: inhibition of PKC binding to recombinant RACK1 by peptides; parameters: species or system rat
Protocol: The variation in the overlay protocol consisted of incubating the putative binding peptides with a mixture of PKC isozymes for 15 minutes at room temperature before the mixture was used to contact the nitrocellulose strips containing immobilized RACK1.
Nitrocellulose strips containing immobilized RACK1, that had been contacted with a solution containing a mixture of PKC isozymes, were washed and the area corresponding to the 36 kDa (RACK1-containing) band was cut out. The pieces (containing PKC/RACK1 complexes) were incubated with sample buffer for 10 minutes at 80° C. The sample buffer and the nitrocellulose pieces were then placed in wells in the PAGE gel and subjected to SDS-PAGE to elute the bound proteins. The gel was blotted onto nitrocellulose and a Western blot analysis was carried out using the mixture of antibodies (specific for PKC α, β, γ, δ, ε and ζ isozymes) described in Example 1 part B. Bound antibodies were detected by ^125I-protein A.
Peptides derived from or homologous to WD-40 repeats of RACK1 were tested for their ability to inhibit PKC binding to recombinant RACK1. Binding of PKC to RACK1 was carried out using a variation of the overlay procedure described in Example 3 part B. In the experimental samples, peptides were incubated with a solution containing a mixture of rat brain PKC isozymes (˜10 nM each) for 15 minutes at room temperature.
Following completion of the modified overlay protocol, the samples were subjected to the overlay-extraction protocol detailed in part B, above.
The results in FIG. 3 show the binding of PKC to RACK1, carried out without (lane 1) or with (lanes 2-4) a preincubation of peptides with PKC. […] Peptide I caused an 81±6% inhibition of PKC binding to recombinant RACK1 as compared with binding in the absence of added peptide (n=3). Lanes 3 and 4 show PKC binding following a preincubation with 10 μM peptide rIII (SEQ ID NO:4) and 10 μM peptide rVI (SEQ ID NO:7), respectively. […] The results shown are representative of three independent experiments.

βPKC = biological target: T1, βPKC (Rattus norvegicus, UniProt P68403); assay: PKC overlay of peptides immobilized on nitrocellulose (slot blot); format: binding; conditions: for binding of activated PKC to immobilized peptide: 5 nM rat brain PKC with PS; for binding of activated PKC to immobilized peptide / lowest peptide amount at which activated PKC bound: DG and calcium; for binding of unactivated PKC to immobilized peptide: 5 nM rat brain PKC without PS, DG, calcium; for lowest peptide amount at which activated PKC bound: PKC with PS, 0.5-10.0 μmole peptide applied
T1 construct: All the solutions contained 5 nM rat brain PKC; from tissue; host or cells: rat brain
T1 sequence (P68403 whole entry): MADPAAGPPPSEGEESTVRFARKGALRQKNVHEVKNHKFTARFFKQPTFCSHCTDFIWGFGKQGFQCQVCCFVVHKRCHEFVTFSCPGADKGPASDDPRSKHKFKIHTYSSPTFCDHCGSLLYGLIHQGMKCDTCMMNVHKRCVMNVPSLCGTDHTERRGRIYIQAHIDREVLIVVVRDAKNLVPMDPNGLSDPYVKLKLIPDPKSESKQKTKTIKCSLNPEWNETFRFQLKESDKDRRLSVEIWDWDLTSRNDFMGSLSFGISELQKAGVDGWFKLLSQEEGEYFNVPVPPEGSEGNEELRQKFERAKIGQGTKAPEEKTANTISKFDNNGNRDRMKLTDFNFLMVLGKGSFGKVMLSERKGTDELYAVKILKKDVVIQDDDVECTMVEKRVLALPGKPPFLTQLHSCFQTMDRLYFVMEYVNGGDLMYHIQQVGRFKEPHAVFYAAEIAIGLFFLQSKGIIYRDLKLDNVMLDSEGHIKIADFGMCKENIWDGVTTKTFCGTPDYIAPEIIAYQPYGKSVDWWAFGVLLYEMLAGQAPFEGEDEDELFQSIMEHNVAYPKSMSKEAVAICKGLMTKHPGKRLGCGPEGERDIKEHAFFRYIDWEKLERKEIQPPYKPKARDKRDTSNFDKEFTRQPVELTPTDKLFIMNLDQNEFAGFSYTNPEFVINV
Protocol: The binding of βPKC to peptide I (SEQ ID NO:1), peptide rVI (SEQ ID NO:7) and control peptide (SEQ ID NO:9) was assessed using a PKC overlay assay similar to that described in Example 3. Increasing amounts of peptides (0.5 μmole, 1.0 μmole, 5.0 μmole and 10.0 μmole) suspended in 20 mM NaCl were applied individually onto nitrocellulose using a slot-blot apparatus (Schleicher and Schuell, Keene, N.H.). The nitrocellulose membrane was washed three times, 15 minutes per wash, in peptide overlay buffer and incubated for two hours in peptide overlay block buffer. The membrane was cut into sections and the sections were transferred to different PKC-containing solutions and incubated for 30 minutes at room temperature. All the solutions contained 5 nM rat brain PKC in peptide overlay buffer. Some solutions additionally contained PS, DG, and calcium. The membranes were then washed three times, 15 minutes per wash, in peptide overlay buffer and incubated in peptide overlay block buffer containing anti-βPKC monoclonal antibodies (1:1000 dilution; Seikagaku Kogyo, Tokyo, Japan). After a 16 hr incubation at room temperature, the filters were washed three times, 15 minutes per wash, in peptide overlay buffer.
Binding of PKC was determined using chemiluminescence as described in Example 3, part C. Quantitation of PKC binding was carried out using a “MICRO SCAN” 1000 gel analyzer (Galai Inc., Yokneam, Israel).

Xenopus oocytes [2] = assay: PKC-mediated Xenopus oocyte maturation (germinal vesicle breakdown, GVBD) after peptide microinjection; format: cell-based; conditions: for plateau % GVBD (fraction of oocytes reaching maturation) following insulin exposure: peptide 50 μM, 50 nl microinjected, 20 h time course
Protocol: Exposure to insulin induces maturation in Xenopus oocytes via a PKC-dependent pathway (Smith, et al., 1992). The maturation response may be quantified by monitoring the appearance of a white spot in the animal hemisphere of the oocyte, indicating germinal vesicle breakdown (GVBD) and maturation. To assess the effects of RACK1 WD-40-derived peptides on insulin-induced PKC-mediated maturation, 50 nl of a 20 mM NaCl solution containing the indicated peptides [peptide I (SEQ ID NO:1; ●), peptide rVI (SEQ ID NO:7; ▪), or injection solution (□)] (peptides at 50 μM) were microinjected into Xenopus oocytes. […] One hour following the peptide injections, the oocytes were exposed to a solution containing insulin (8.25 μg/ml) for 2 minutes (t=0). 10-15 oocytes were used for each sample.
The data, representative of three independent experiments, are expressed as the percent of oocytes with GVBD following insulin exposure and are plotted as a function of time in FIG. 5.

PKC = assay: Histone type IIIs phosphorylation by PKC; format: biochemical; conditions: absence of PS, DG and calcium; peptide 10 μM
Protocol: Histone type IIIs (Sigma Chemical Company, St. Louis, Mo.) was phosphorylated by PKC (˜10 nM) in the absence (lane 1) and presence of peptide rVI (10 μM) (lanes 2 and 3) and in the presence and absence of DG (0.8 μg/ml), PS (50 μg/ml) and CaCl2 (1 mM) (lane 3). The results are expressed as percentage of control that is the amount of Histone phosphorylation by PKC in the presence of DG (0.8 μg/ml), PS (50 μg/ml) and CaCl2 (1 mM). The results are the average ± SEM of two independent experiments. PKC was first incubated with the peptide rVI (10 μM) for 15 minutes in overlay buffer as described above. Histone type IIIs (40 μg/ml) was added in Tris-HCl (20 mM), MgCl2 (20 mM), ATP (20 μM) and ([γ-^32P]ATP (5 μci/ml) with or without PS (50 μg/ml), DG (0.8 μg/ml) and CaCl2 (1 mM). Histone phosphorylation was determined by autoradiography as above.

Xenopus oocytes [3] = assay: PKC-mediated Xenopus oocyte maturation (germinal vesicle breakdown, GVBD) after peptide microinjection; format: cell-based; conditions: for dose dependence of effect on GVBD: between 5 μm-500 μM
δ and εPKC isozymes = assay: PKC isozyme translocation and degradation in cardiac myocytes; format: cell-based, rat
Protocol: In cardiac myocytes, norepinephrine (NE, 2 μM) causes translocation of δ and εPKC isozymes from the cytosolic to the particulate fraction. […] This peptide-induced translocation was followed by degradation of δ and εPKC isozymes.

[4] = peptide 50 μM microinjected, insulin 8.25 μg/ml
[5] = peptide 50 μM alone, no insulin
[6] = peptide introduced into cardiac myocytes

| Substance | inhibition of PKC binding to RACK1 (in words) ([1]; 10 μM peptide preincubated with PKC) | binding of activated PKC to immobilized peptide (βPKC) | binding of unactivated PKC to immobilized peptide (βPKC) | lowest peptide amount at which activated PKC bound (βPKC) | delay to onset of maturation after exposure to insulin (Xenopus oocytes [2]; [4]) | time to reach GVBD plateau after insulin exposure (Xenopus oocytes [2]; [4]) | plateau % GVBD (fraction of oocytes reaching maturation) following insulin exposure (Xenopus oocytes [2]; insulin 8.25 μg/ml) | effect on insulin-induced oocyte maturation (in words) (Xenopus oocytes [2]; peptide microinjected, insulin) | induction of PKC-mediated histone phosphorylation (PKC) | dose dependence of effect on GVBD (Xenopus oocytes [3]) | delay to initiation of maturation in the absence of insulin (Xenopus oocytes [3]; [5]) | induction of GVBD in the absence of insulin (Xenopus oocytes [3]; [5]) | plateau % GVBD in the absence of insulin (Xenopus oocytes [3]; [5]) | inhibition of PKC binding to recombinant RACK1 as compared with binding in the absence of added peptide ([1]; 10 μM peptide preincubated with PKC isozyme mixture 15 min, n=3) | NE-induced translocation of δ and εPKC (δ and εPKC isozymes; norepinephrine 2 μM) | degradation of PKC isozymes (δ and εPKC isozymes; [6]) | translocation / distribution of δ and εPKC isozymes in the absence of hormone stimulation (δ and εPKC isozymes; [6]) |
| --- | --- | --- | --- | --- | --- | --- | --- | --- | --- | --- | --- | --- | --- | --- | --- | --- | --- |
| peptide rVI: eight amino acid peptide identical to a segment of RACK1 WD-40 repeat VI (DIINALCF) | inhibit the binding of PKC to RACK1 | bound | did bind | 5 µmol | 3 to 4 h | ≤ 5 h | ~100% and 95-100% | potentiates the effects of insulin on oocyte maturation | effective to induce PKC-mediated histone phosphorylation; also recorded: induced histone phosphorylation | dose-dependent | 6 to 7 h | induced oocyte maturation; also recorded: induced GVBD | about 50% |  |  |  |  |
| peptide I: 15-residue peptide homologous to a sequence in the sixth WD-40 repeat of RACK1; PKC antagonist (KGDYEKILVALCGGN) |  | bound | did not bind | 5 µmol |  |  | 45-50% |  |  | dose-dependent |  |  |  | 81±6% | inhibited | nor does it induce PKC degradation; also recorded: did not cause degradation | does not affect PKC distribution |
